Measured values reported in US8420052B2, “Imaging agents useful for identifying AD pathology” (Siemens Medical Solutions USA, Inc., priority 2008, dated 2013).

Legend:
[1] = target: synthetic beta-Amyloid-42 (Homo sapiens, UniProt P05067); test: Amyloid fibril (synthetic A-Beta42) binding assay; details: 10 uM synthetic beta-Amyloid-42, 90 min; compared with 18F-PiB
Method: Amyloid Fibril (Synthetic A-Beta42) Binding Assay Incubation of various concentration of [F18]-compound (starting with 200 nM cold compound and 100 μCi of F18-compound) with or without 10 μM of synthetic beta-Amyloid-42 for 90 min Filter through G/F glass fiber, wash filter 2 times with 20% ethanol/PBS at room temperature, count the radioactivity, and measure the KD value.

[2] = system: human brain slices from AD patients; test: Grey to white matter binding of tracers on human AD brain slices under various washing conditions; details: EtOH:water washes
Method: A study was conducted to examine the grey to white matter binding ratios for 2 different tracers: 18F-W372 and 18F-PiB. After the human brain slices from AD patients were incubated with a given tracer for 1 hr, the slices were washed with various EtOH:water solutions in an attempt to optimize the grey to white matter ratios. The results were surprising and unexpected in view of previous work performed by other researchers.

[3] = Mouse metabolism studies (organ uptake and metabolites); format: in vivo; details: mice, tail-vein
Method: Approximately 400 μCi of [F-18]W372 (at a volume of 200 μL) was injected via tail-vein into mice. The animals were sacrificed at 5 minutes (n=3) and 30 minutes (n=3) post-injection. Whole blood was obtained, weighed, and centrifuged at 13,000 RPM (3 minutes) to isolate plasma. The brain, kidneys, and liver were harvested, weighed, and homogenized in lysis buffer. 400 μL of each sample was subsequently removed, mixed with an equal volume of chloroform/methanol (1:1), vigorously vortexed, and placed on dry ice for 3 minutes. After thawing, another centrifugation step at 13,000 RPM (7 minutes) allowed for the separation of lipid (CHCl3) and aqueous (MeOH/H2O) phases. The hydrophobic and hydrophilic fractions were then removed, counted for radioactivity in a PerkinElmer Wizard gamma counter, and finally analyzed by Radio-HPLC (Raytest GmbH/Agilent).

[4] = Mouse brain microPET imaging; format: in vivo, mice
Method: Mouse Brain MicroPET Imaging
FIGS. 11 and 12 show the results of mouse brain imaging with 18F-W372 in WT and APP mice. […] There is not much difference between APP and WT mice, but both App mice do appear to be slightly better retained after 13 min (App:WT=1.5:1).
FIGS. 14a and 14b show a comparison of brain uptake between 18F-PiB and 18F-W372 using dynamic microPET scanning in young and old mice. […] The rapid washout of [18F]W372 is presumably a major factor for its low non-specific binding, yet the washout is slow enough to distinguish WT from APP.

[5] = target: 18F-PiB binding sites, amyloid plaque and fibril in human brain slices (Homo sapiens, UniProt P05067); test: Human AD brain slice competition against 18F-PiB (IC50); details: for IC50: tracer 18F-PiB, human AD brain slices, blocker 0.01 to 10 uM
Method: (§1) The slices were incubated at room temperature for 90 min. The slices were then quickly washed in PBS, followed by 70% EtOH:PBS for 2 min, then 30% EtOH:PBS for 2 min and then quickly washed with PBS. The slices were dried for 30 min and then exposed on autoradiographic film for 20 min. The brain slices were then removed from the slide and the radioactivity counted in a gamma counter. The percentage of blocking versus the concentrations of blocker was then plotted, and IC50 was calculated based on the curve.

[6] = target: 18F-W372 binding sites, amyloid plaque and fibril in human brain slices (Homo sapiens, UniProt P05067); test: Human AD brain slice competition against 18F-W372 (IC50); details: tracer 18F-W372, blocker 0.01 to 10 uM
Method: as §1

[7] = system: amyloid plaques and fibrils in human brain slices; test: Human brain slice competition assay using autoradiography; format: binding; details: radiolabeled tracer approx. 20 uCi, 90 min rt, lower = more displacement; for _max low dose (percent dose remaining relative to control with no blocker): blocker 0.25 uM; for _max high dose (percent dose remaining relative to control with no blocker): blocker 2.5 uM
Method: Human Brain Slice Competition Assay Using Autoradiography
Briefly, 5 micron thick human brain slices from regions of the brain bearing high amyloid plaque and fibril burden were incubated with approximately 20 uCi of a radiolabeled tracer in 2.5%:2.5%:95% DMSO:EtOH:PBS in the presence of blocker (2.5 and 0.25 uM total concentration) or absence of blocker (control). The slices were incubated at rt for 90 min. The slices were then quickly washed in PBS, followed by 70% EtOH:PBS for 2 min, then 30% EtOH:PBS for 2 min and then quickly washed with PBS. The slices were dried for 30 min and then exposed on autoradiographic film for 20 min. The brain slices were then removed from the slide and the radioactivity counted in a gamma counter. The percent dose remaining, relative to a control with no blocker, at 0.25 uM is represented in the “_max low dose” column. The percent dose remaining, relative to a control with no blocker, at 2.5 uM is represented in the “_max high dose” column.

Chain of 18F-W372 binding sites, amyloid plaque and fibril in human brain slices (P05067 whole entry): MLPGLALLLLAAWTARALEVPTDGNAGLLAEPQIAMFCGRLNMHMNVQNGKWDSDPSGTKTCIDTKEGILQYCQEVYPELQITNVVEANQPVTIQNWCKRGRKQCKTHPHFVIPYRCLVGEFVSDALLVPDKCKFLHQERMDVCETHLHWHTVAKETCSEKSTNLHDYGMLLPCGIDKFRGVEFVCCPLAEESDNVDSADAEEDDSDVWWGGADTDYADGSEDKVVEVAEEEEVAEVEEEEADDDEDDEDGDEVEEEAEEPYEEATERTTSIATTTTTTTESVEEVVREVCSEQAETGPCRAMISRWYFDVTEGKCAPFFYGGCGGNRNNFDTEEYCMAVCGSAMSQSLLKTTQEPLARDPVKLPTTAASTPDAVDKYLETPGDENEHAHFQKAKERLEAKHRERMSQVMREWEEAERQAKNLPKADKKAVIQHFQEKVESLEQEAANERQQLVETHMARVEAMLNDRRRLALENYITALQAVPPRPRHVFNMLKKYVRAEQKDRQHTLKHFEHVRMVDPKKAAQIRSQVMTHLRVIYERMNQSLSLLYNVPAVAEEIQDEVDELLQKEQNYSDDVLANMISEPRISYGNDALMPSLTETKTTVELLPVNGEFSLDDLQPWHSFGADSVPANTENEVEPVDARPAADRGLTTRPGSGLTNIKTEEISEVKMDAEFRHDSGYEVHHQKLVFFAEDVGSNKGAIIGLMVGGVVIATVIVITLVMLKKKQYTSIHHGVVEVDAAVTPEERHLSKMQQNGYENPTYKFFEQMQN
Chain of 18F-PiB binding sites, amyloid plaque and fibril in human brain slices (P05067 672-711 limits assumed): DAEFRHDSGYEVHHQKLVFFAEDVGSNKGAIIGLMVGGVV
Chain of synthetic beta-Amyloid-42 (P05067 672-713 limits assumed): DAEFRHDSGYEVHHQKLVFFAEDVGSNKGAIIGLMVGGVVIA

Structure (SMILES)	_max low dose (percent dose remaining relative to control with no blocker) [7] [%]	_max high dose (percent dose remaining relative to control with no blocker) [7] [%]	other results
COc1ccc2c(n1)sc1nc(-c3ccc([18F])nc3)cn12 [Compound 18F-W372]	–	–	KD value, synthetic amyloid fibril [1]: lower KD value compared with the known compound 18F-PiB; grey to white matter binding ratios ([2]; 1 hr incubation): excellent grey to white matter binding ratios; non-specific (white matter) binding [2]: lower non-specific binding than 18F-PiB; brain uptake ([3]; 5 minutes post-injection): 3.8 % ID/g; brain uptake ([3]; 30 minutes post-injection): 0.47 % ID/g; brain washout (microPET) ([4]; 30 minute dynamic scans, young/old, WT/App mice): sufficiently slow washout such that one can distinguish WT from APP mice; brain uptake (microPET) ([4]; WT and APP mice): > 9 % ID/g
COc1ccc2c(n1)sc1nc(-c3ccc(F)cc3)cn12 [Compound W332]	–	–	IC50 [5]: 79 nM
COc1ccc2c(n1)sc1nc(-c3ccc(F)nc3)cn12 [Compound W372, 7-Methoxy-2(6-fluoropyridin-3-yl)imidazo[2,1-b]8-pyridinothiazole]	–	–	competition with 18F-PiB for binding sites / binding affinity relative to PiB ([5]; human AD brains): strongly competes with 18F-PiB for binding sites in human AD brains; IC50 [5]: 73 nM; IC50 [6]: 37 nM
COc1ccc2c(c1)oc1nc(-c3ccc(F)cn3)cn12 [Compound W380, 7-methoxy-2-(5-fluoro-2-pyridyl)-imidazo[2,1-b]benzoxazole]	–	–	IC50 [5]: 73 nM
COc1ccc2c(n1)oc1nc(-c3ccc(F)cc3)cn12 [Compound W386, 7-Methoxy-2(4-fluorophenyl)imidazo[2,1-b]8-pyridino-oxazole]	–	–	IC50 [5]: 210 nM; IC50 [6]: 71 nM
COc1ccc2c(c1)sc1nc(-c3ccc(F)nc3)cn12 [Compound W388]	–	–	IC50 [6]: 150 nM
COc1ccc2c(n1)sc1nc(-c3ccc(F)c(O)c3)cn12 [Compound W389]	–	–	IC50 [5]: 130 nM
COc1ccc2c(n1)sc1nc(-c3cnc(F)cn3)cn12 [Compound W392, 7-methoxy-2(2-fluoropyrazin-5-yl)imidazo[2,1-b]8-pyridinothiazole]	–	–	IC50 [6]: 210 nM
COc1ccc2c(n1)oc1nc(-c3ccc(F)nc3)cn12 [Compound W393]	–	–	IC50 [6]: 170 nM
FCCOCCOCCOc1ccc2c(c1)[nH]c1c3ccccc3sc21 [DHK4-57]	81.06	30.70	–
FCCOCCOCCOc1ccc2c(c1)[nH]c1ncccc12 [DHK4-58]	88.82	85.78	–
CNc1ccc2c(c1)[nH]c1cc(O)ccc12 [GC3125]	47.08	18.59	–
FCCCCOc1cccc(-c2cc3ccccn3c2)c1 [IN3]	98.13	67.27	–
CN(CCF)c1ccc(/C=C2/C(=O)Nc3ccccc32)cc1 [OX-2, (E)-3-(4-((2-fluoroethyl)(methyl)amino)benzylidene)indolin-2-one]	68.22	82.78	–
FCCNc1nc(-c2ccc3ccccc3c2)cs1 [TZ001, N-(2-fluoroethyl)-4-(naphthalen-2-yl)thiazol-2-amine]	98.06	52.00	–
COc1ccc(-n2c(=O)sc3ccccc32)cc1 [UG470, 3-(4-methoxyphenyl)benzo[d]thiazol-2(3H)-one]	81.29	79.87	–
CN(C)c1ccc(-c2ncc(/C=C/c3ccc(O)cc3)s2)cc1 [UG-4-69, (E)-4-(2-(2-(4-(dimethylamino)phenyl)thiazol-5-yl)vinyl)phenol]	69.79	31.02	–
O=CNc1ccc2c(c1)[nH]c1cc(OCc3ccccc3)ccc12 [WZ01169]	42.09	36.55	–
Nc1nc(-c2ccc3ccccc3c2)cs1 [w18]	69.20	27.86	–
Oc1ccc2c(c1)[nH]c1cc(NCCF)ccc12 [w78]	99.49	63.32	–
